Laboratory results taken from ChEMBL document CHEMBL1128079, “Differential RXR & RAR activity of stilbene retinoid analogs bearing thiazole and imidazole carboxylic acids” (Bioorg Med Chem Lett, 1995).

Key:
Assay type in all cases: functional; call rule not given here
[1] = target: T1, Retinoic acid receptor RXR-gamma (Homo sapiens, UniProt P48443); test: Agonist activity for retinoic acid receptor RXR gamma in transcriptional activation assay
T1 sequence (P48443 whole entry): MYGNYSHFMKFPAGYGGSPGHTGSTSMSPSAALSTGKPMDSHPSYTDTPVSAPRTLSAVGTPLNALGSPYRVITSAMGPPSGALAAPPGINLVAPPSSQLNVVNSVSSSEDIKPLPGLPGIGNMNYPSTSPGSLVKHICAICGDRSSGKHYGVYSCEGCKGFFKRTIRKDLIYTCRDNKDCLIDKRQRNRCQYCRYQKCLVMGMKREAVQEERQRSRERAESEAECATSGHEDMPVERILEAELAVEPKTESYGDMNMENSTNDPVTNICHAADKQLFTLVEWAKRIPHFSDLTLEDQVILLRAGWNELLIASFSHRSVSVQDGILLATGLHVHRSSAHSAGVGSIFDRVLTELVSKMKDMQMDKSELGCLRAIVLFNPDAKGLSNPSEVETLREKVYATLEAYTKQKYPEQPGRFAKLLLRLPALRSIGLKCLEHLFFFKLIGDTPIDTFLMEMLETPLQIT

[2] = target: T2, Retinoic acid receptor RXR-alpha (Homo sapiens, UniProt P19793); test: Agonist activity for retinoic acid receptor RXR alpha in transcriptional activation assay
T2 sequence (P19793 whole entry): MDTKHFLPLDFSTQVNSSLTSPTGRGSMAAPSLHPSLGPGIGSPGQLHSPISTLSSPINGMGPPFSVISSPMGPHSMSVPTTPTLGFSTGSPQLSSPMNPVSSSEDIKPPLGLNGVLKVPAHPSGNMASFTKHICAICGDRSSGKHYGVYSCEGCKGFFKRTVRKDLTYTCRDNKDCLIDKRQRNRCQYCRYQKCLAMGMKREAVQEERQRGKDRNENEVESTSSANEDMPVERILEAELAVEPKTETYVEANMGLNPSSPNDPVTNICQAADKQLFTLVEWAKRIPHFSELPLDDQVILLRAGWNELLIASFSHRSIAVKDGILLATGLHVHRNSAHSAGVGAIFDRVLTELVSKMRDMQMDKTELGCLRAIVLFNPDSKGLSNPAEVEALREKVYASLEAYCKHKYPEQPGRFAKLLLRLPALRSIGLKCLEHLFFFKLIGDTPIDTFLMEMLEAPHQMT

[3] = target: T3, Retinoic acid receptor beta (Homo sapiens, UniProt P10826); test: Agonist activity for retinoic acid receptor RAR beta in transcriptional activation assay
T3 sequence (P10826 whole entry): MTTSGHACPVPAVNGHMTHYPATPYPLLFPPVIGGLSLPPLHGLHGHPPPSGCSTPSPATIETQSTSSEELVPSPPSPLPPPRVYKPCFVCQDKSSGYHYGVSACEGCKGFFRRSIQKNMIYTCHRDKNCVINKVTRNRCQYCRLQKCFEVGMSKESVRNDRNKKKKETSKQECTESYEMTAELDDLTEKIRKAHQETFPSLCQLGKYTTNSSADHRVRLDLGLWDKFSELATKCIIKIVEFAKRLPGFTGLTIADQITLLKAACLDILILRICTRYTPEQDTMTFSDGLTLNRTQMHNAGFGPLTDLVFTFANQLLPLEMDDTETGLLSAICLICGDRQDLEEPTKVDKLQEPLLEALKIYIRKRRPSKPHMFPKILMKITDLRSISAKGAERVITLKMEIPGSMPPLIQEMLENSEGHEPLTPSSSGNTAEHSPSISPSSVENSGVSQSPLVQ

[4] = target: T4, Retinoic acid receptor alpha (Homo sapiens, UniProt P10276); test: Agonist activity for retinoic acid receptor RAR alpha in transcriptional activation assay; […]
T4 sequence (P10276 whole entry): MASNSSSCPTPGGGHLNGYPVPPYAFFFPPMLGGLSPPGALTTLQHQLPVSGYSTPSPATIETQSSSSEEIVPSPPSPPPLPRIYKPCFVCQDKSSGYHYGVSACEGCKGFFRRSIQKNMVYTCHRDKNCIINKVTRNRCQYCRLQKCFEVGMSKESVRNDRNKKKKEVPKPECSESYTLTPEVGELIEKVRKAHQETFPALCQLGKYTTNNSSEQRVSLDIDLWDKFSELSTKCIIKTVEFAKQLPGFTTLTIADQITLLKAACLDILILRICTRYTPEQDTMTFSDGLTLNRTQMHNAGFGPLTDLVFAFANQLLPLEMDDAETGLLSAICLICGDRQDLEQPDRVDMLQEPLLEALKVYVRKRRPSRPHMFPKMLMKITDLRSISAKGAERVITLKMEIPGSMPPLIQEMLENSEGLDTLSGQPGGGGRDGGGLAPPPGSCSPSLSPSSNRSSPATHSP

[5] = target: T5, Retinoic acid receptor RXR-beta (Homo sapiens, UniProt P28702); test: Agonist activity for retinoic acid receptor RXR beta in transcriptional activation assay
T5 sequence (P28702 whole entry): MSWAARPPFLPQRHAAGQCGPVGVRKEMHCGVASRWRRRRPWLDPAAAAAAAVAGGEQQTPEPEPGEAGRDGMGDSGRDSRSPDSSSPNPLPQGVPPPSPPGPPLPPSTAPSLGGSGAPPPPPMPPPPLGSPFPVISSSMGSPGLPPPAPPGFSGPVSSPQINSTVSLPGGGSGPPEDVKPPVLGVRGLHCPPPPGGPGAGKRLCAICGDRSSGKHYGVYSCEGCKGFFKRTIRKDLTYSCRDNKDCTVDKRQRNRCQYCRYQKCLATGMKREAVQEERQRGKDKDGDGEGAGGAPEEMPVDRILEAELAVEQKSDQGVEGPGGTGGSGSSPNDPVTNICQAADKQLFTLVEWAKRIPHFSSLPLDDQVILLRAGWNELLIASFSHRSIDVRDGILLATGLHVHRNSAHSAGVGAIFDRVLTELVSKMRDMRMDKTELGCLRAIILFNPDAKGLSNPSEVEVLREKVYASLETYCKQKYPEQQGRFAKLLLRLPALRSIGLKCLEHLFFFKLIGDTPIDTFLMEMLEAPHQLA

[6] = target: T6, Retinoic acid receptor gamma (Homo sapiens, UniProt P13631); test: Agonist activity for retinoic acid receptor RAR gamma in transcriptional activation assay
T6 sequence (P13631 whole entry): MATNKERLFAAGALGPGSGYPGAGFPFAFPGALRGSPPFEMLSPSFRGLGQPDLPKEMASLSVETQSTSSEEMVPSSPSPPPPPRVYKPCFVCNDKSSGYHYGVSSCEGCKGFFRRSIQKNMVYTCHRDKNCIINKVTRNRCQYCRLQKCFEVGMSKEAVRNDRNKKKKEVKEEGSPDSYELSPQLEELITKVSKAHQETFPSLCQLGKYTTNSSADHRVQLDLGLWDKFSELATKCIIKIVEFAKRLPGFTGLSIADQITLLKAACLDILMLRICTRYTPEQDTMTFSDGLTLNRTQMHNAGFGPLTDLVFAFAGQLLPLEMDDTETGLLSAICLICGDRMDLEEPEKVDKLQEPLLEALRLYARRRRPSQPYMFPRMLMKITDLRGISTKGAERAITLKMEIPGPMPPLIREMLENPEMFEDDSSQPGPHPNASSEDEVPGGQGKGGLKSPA

[7] = target: T3, Retinoic acid receptor beta; test: Agonist activity for retinoic acid receptor RAR beta in transcriptional activation assay; […]
[8] = target: T6, Retinoic acid receptor gamma; test: Agonist activity for retinoic acid receptor RAR gamma in transcriptional activation assay; […]
[9] = target: T4, Retinoic acid receptor alpha; test: Agonist activity for retinoic acid receptor RAR alpha in transcriptional activation assay

| EC50 [1] | EC50 [2] [µM] | EC50 [3] [µM] | EC50 ([1]; read-out: EC50) [µM] | EC50 [4] | EC50 [5] [µM] | EC50 [6] [µM] | EC50 [7] | EC50 [8] | EC50 [9] [µM] | SMILES |
| --- | --- | --- | --- | --- | --- | --- | --- | --- | --- | --- |
| – | 0.004 | 0.22 | 0.004 | Not Active | 0.003 | 0.2 | – | – | – | C/C(=C\c1ncc(C(=O)O)s1)c1cc2c(cc1C)C(C)(C)CCC2(C)C |
| – | 0.21 | 0.046 | 0.16 | – | 0.21 | 0.034 | – | – | 0.21 | C/C(=C\c1ncc(C(=O)O)s1)c1ccc2c(c1)C(C)(C)CCC2(C)C |

The next lines start with the compound.

| SMILES | EC50 [1] | EC50 [2] [µM] | EC50 [3] [µM] | EC50 ([1]; read-out: EC50) [µM] | EC50 [4] | EC50 [5] [µM] | EC50 [6] [µM] | EC50 [7] | EC50 [8] | EC50 [9] [µM] |
| --- | --- | --- | --- | --- | --- | --- | --- | --- | --- | --- |
| C/C(=C\c1ccc(C(=O)O)cc1)c1ccc2c(c1)C(C)(C)CCC2(C)C | Not Active | – | – | – | – | – | – | – | – | – |
| C/C(=C\c1nc(C(=O)O)c[nH]1)c1cc2c(cc1C)C(C)(C)CCC2(C)C | – | 0.089 | – | 0.17 | Not Active | 0.13 | – | Not Active | Not Active | – |
| C/C(=C\c1ncc(C(=O)O)n1S(=O)(=O)N(C)C)c1cc2c(cc1C)C(C)(C)CCC2(C)C | – | 0.059 | – | 0.086 | Not Active | 0.18 | – | Not Active | Not Active | – |
| C/C(=C\c1ccc(C(=O)O)s1)c1cc2c(cc1C)C(C)(C)CCC2(C)C | – | 0.035 | 0.056 | 0.033 | Not Active | 0.023 | 0.131 | – | – | – |
| C/C(=C\c1ccc(C(=O)O)s1)c1ccc2c(c1)C(C)(C)CCC2(C)C | – | 2.4 | 0.029 | 2.3 | – | 2.3 | 0.015 | – | – | 0.69 |
| C/C(=C\c1cc(C(=O)O)cs1)c1cc2c(cc1C)C(C)(C)CCC2(C)C | – | 0.215 | 1.99 | 0.105 | Not Active | 0.18 | 0.979 | – | – | – |
